Test results published in US5654427A, “Indolocarbazole derivatives to treat a pathological condition of the prostate” (Kyowa Hakko Kogyo Co., Ltd., priority 1995, dated 1997).

Columns and labels:
[1] = test system: DU-145; assay: growth inhibition of DU-145 prostate cancer cells (calcein fluorescence); type: cell-based; details: Homo sapiens, DU-145, 72 h; 3 days incubation; read-out: DU-145 C50
Description: (§1) Throughout the experiment the Tsu-Pr1 and Du-Pro1 cells were maintained in RPMI 1640 medium (GIBCO) containing 10% fetal bovine serum (Hyclone), 2 mM glutamine, 100 U/ml penicillin, and 100 μg/ml streptomycin. The PC-3 cells were maintained in Ham's F12K medium (Irvine Scientific) containing 10% fetal bovine serum (Hyclone), 2 mM glutamine, 100 U/ml penicillin, and 100 μg/ml streptomycin. All cell lines were maintained at 37° C. in a humidified atmosphere containing 5% CO2. The DU-145 cells were maintained in minimal essential medium (Gibco), containing 10% fetal bovine serum (Hyclone), 2 mM glutamine, and no antibiotics.
(§2) Tests for growth inhibition by the candidate compounds were conducted by the following procedure. In each well of a 96-well plate (Falcon) were placed 2,500 cells in 0.1 ml of medium. The cultures were incubated overnight after which a 0.1 ml aliquot of culture medium was added to each well. […] Other control wells received medium without any K-252a derivative compounds. Incubation was continued for three days. On day three the number of cells in each well was measured using a calcein fluorescence assay (Bozyczko-Coyne et al. J. Neurosci. Meth. 50, 205-216 (1993)).
(§3) Calcein AM (Molecular Probes, Eugene, Oreg.), an analog of the viable dye fluorescein diacetate, is taken up by cells and cleaved intracellularly to fluorescent salts that are retained by intact membranes of viable cells. This method thus provides a reliable and quantitative measurement of cell survival. Calcein AM was diluted 2× in Dulbeccos phosphate buffered saline (D-PBS) to 2× the final assay concentration (6 μM) and 100 μl was added to culture wells containing 100 μl of medium. The plates were then incubated for 1 hour at 37° C. Cells were then washed 4 times with D-PBS to remove excess calcein not taken up by cells. The plate was read using a Millipore plate reading fluorimeter (Cytofluor 2350) at emission=485 nm and excitation=538 nm. After subtraction of blank values (wells containing medium but no cells), relative fluorescent values reflect a quantitative measurement of cell survival.
(§4) The number of cells in the wells containing functional derivatives was compared to the number of cells in the control wells. The concentration which inhibited cell growth by 50% was calculated and is referred to as the "IC50 ".

[2] = body weight and weight of peripheral organs in sexually immature mice; details: for Body Weight: Table 6, TEPBS 32.0 ± 0.6; for Heart weight / Testes weight / Stomach weight / Lung weight / Kidney weight / Liver weight: Table 7; for Heart weight: TEPBS 170 ± 10; for Testes weight: TEPBS 206 ± 8; for Stomach weight: TEPBS 272 ± 14; for Lung weight: TEPBS 280 ± 15; for Kidney weight: TEPBS 589 ± 34; for Liver weight: TEPBS 2004 ± 69
From the text: The following animal model can be used to test the efficacy of a functional derivative for treatment of a proliferative prostate condition. Sexually immature male mice of 15-20 g each (Charles River Laboratories, Raleigh, N.C.) were used in the following in vivo study. The mice were allowed at least 3 days after purchase to acclimate before being used in any experiments.
Each test group contained 12 mice. […] At the end of the 21 day dosing period the mice were sacrificed and whole body blood, dorsal prostate, ventral prostate, coagulating glands, seminal vesicles, heart, liver, stomach, lung, kidneys and testes were collected separately and weighed.

[3] = test system: Du-Pro1; assay: growth inhibition of Du-Pro1 prostate cancer cells (calcein fluorescence); type: cell-based; details: Homo sapiens, 72 h; 3 days incubation; read-out: Du-Pro1 IC50
Description: as §1, §2, §3, §4

[4] = target: T1, trkA (Rattus norvegicus, UniProt P35739); assay: inhibition of NGF-stimulated trk autophosphorylation (tyrosine phosphorylation) in PC12 cells, anti-phosphotyrosine Western blot; type: cell-based; details: 100 nM compound, NGF 50 ng/ml; further: key: +: Inhibited phosphorylation; -: Did not inhibit phosphorylation
T1 construct: are rat pheochromocytoma cells that bear trkA; host or cells: PC12 rat pheochromocytoma cells

[5] = test system: Dunning R-3327 AT-2.1 prostate tumor; assay: inhibition of growth of Dunning R-3327 AT-2.1 prostate tumor in adult male Copenhagen rats; type: in vivo, rat; details: 10 mg/kg/day s.c.
From the text: The AT-2 tumor is a highly anaplastic cell line derived from the original slow-growing androgen-dependent Dunning R-3327 H rat prostate tumor (Issacs et al., Prostate 9:261-281, 1986). The AT-2 tumor model has been used to characterize other potential anti-prostatic cancer agents including linomide (Ichikawa et al., Cancer Research 52:3022-3028, 1992) and suramin (Morton et al., Prostate 17:327-336, 1990) which is undergoing evaluation in clinical trials for androgen-independentprostate cancer (Eisenberger et al., J. Natl. Can. Inst. 85: 611-621, 1993).
Experimental Protocol: Twenty-four inbred male Copenhagen rats were inoculated subcutaneously in the flank with 1×10^6 viable AT-2.1 tumor cells. All animals were allowed to develop tumors of approximately 2.7 cm^3 in size (approximately 14 days) before being randomized into three groups of 8 animals each. Group 1 received daily subcutaneous injections of vehicle alone (1 ml/kg body weight). […] All animals had their tumor sizes evaluated for a period of 16 days. Tumor volume was calculated using the formula (1×w^2)×0.5.

[6] = test system: Tsu-Pr1; assay: growth inhibition of Tsu-Pr1 prostate cancer cells (calcein fluorescence); type: cell-based; details: Homo sapiens, TSU-Pr1, 72 h; 3 days incubation; read-out: Tsu-Pr1 IC50
Description: as §1, §2, §3, §4

[7] = test system: PC-3; assay: growth inhibition of PC-3 prostate cancer cells (calcein fluorescence); type: cell-based; details: Homo sapiens, PC-3, 72 h; 3 days incubation; read-out: PC-3 IC50
Description: as §1, §2
Calcein AM (Molecular Probes, Eugene, Oreg.), an analog of the viable dye fluorescein diacetate, is taken up by cells and cleaved intracellularly to fluorescent salts that are retained by intact membranes of viable cells. This method thus provides a reliable and quantitative measurement of cell survival. Calcein AM was diluted 2× in Dulbeccos phosphate buffered saline (D-PBS) to 2× the final assay concentration (6 μM) and 100 μl was added to culture wells containing 100 μl of medium. The plates were then incubated for 1 hour at 37° C. Cells were then washed 4 times with D-PBS to remove excess calcein not taken up by cells. The plate was read using a Millipore plate reading fluorimeter (Cytofluor 2350) at emission=485 nm and excitation=538 nm. After subtraction of blank values (wells containing medium but no cells), relative fluorescent values reflect a quantitative measurement of cell survival. […]

T1 sequence (P35739 33-799): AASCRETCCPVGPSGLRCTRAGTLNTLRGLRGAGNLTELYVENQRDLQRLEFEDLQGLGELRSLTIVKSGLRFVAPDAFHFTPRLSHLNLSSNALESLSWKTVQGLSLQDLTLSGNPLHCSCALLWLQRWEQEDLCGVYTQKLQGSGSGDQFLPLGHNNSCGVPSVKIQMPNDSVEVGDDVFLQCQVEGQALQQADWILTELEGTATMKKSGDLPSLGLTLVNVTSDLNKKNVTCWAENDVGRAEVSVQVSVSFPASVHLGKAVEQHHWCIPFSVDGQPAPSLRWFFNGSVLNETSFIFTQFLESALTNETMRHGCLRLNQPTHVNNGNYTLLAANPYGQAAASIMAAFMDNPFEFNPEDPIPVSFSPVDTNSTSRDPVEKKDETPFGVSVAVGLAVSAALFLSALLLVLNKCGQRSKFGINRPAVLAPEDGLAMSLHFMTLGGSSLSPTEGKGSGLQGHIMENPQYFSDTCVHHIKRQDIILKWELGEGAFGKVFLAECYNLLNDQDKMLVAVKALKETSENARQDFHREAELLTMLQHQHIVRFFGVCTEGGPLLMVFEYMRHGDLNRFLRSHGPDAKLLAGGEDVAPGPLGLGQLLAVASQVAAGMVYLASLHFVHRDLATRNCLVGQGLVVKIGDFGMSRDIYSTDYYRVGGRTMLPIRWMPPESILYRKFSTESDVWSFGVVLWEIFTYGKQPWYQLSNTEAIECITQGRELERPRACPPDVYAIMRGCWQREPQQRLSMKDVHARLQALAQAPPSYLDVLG

- IC50 [1]: 110 nM
- IC50 [3]: 270 nM
- trk 100 nM (inhibition of phosphorylation) [4]: +
- IC50 [6]: 70 nM
- IC50 [7]: 5000 nM
SMILES: COC1(CO)CC2OC1(C)n1c3ccccc3c3c4c(c5c6ccccc6n2c5c31)C(=O)NC4 (stereo not shown) [Compound I-19]
- Body Weight ([2]; 1 mg/kg): 31.9 ± 0.8 g
- Body Weight ([2]; 10 mg/kg): 31.2 ± 0.5 g
- Heart weight ([2]; 1 mg/kg): 160 ± 20 mg
- Testes weight ([2]; 1 mg/kg): 205 ± 7 mg
- Stomach weight ([2]; 1 mg/kg): 252 ± 12 mg
- Lung weight ([2]; 1 mg/kg): 323 ± 16 mg
- Kidney weight ([2]; 1 mg/kg): 467 ± 18 mg
- Liver weight ([2]; 1 mg/kg): 1968 ± 58 mg
- Heart weight ([2]; 10 mg/kg): 166 ± 8 mg
- Testes weight ([2]; 10 mg/kg): 208 ± 8 mg
- Stomach weight ([2]; 10 mg/kg): 242 ± 11 mg
- Lung weight ([2]; 10 mg/kg): 276 ± 18 mg
- Kidney weight ([2]; 10 mg/kg): 563 ± 17 mg
- Liver weight ([2]; 10 mg/kg): 1933 ± 70 mg
- inhibiting growth of AT-2.1 tumors ([5]; approximately): 50-60%
- Tumor volume Day 0 ([5]; vehicle 2.73 ± 0.50): 2.62 ± 0.53 cm^3
- Tumor volume Day 3 ([5]; vehicle 6.66 ± 1.48): 5.52 ± 1.10 cm^3
- Tumor volume Day 8 ([5]; vehicle 21.0 ± 3.0): 11.3 ± 1.8 cm^3
- Tumor volume Day 13 ([5]; vehicle 37.3 ± 4.0): 22.4 ± 2.7 cm^3
- Tumor volume Day 16 ([5]; vehicle 58.7 ± 5.0): 28.4 ± 5.1 cm^3
